Laboratory results from patent US5385842A, “Anthraquinones as inhibitors of sulfide production from sulfate-reducing bacteria” (E. I. Du Pont de Nemours and Company, priority 1993, dated 1995).
Counter-ions that a name gives are not always drawn.

Columns and labels:
[1] = test system: Desulfovibrio gigas; assay: Sulfide production by resting cells of D. gigas; assay type: cell-based; settings: for activity at 0.1 ppm / activity at 0.5 ppm / activity at 2 ppm / activity at 5 ppm: Desulfovibrio, 3 hours at 31° C.; for inhibition of sulfide production (in words): resting cells
Procedure: Experiments in this example were carried out using resting cells of Desulfovibrio gigas rather than growing cells as was the case for the autoanalyzer system employing the Desulfovibrio desulfuricans G100A strain. […] Thus the experiment examined a different organism, different test system, and a different physiological state for the phenomenon of anthraquinone inhibition of sulfide production by Desulfovibrio sp. Active compounds, as determined by the autoanalyzer, were evaluated in comparison with four additional compounds not evaluated in the autoanalyzer.
500 ml cultures of Desulfovibrio gigas were grown on standard BTZ-3 medium as previously described in Example 1 with 30 mM sodium lactate, 30 mM sodium sulfate and 30 mM sodium fumarate. The culture was harvested after 24 h of growth at 31° C. by centrifugation at 8000 rpm in a GSA Sorvall rotor for 20 minutes. The cell pellet was resuspended in 30 ml of incubation assay mixture of the following composition: 50 mM HEPES buffer pH 7 buffer, 2.5 mM sodium lactate, 2.5 mM sodium sulfate. This suspension was centrifuged again at 10,000 rpm in a Sorvall SS-34 rotor for 5 minutes. The resulting cell pellet was resuspended in 5 ml of incubation assay buffer. Cell densities were generally near 10e10 cells/mi.
The samples were assayed for production in the presence of anthraquinones. 200 ul of the cell suspension was added to 1.2 ml of incubation assay mixture in a 5 ml capacity test tube. The tube was gassed with hydrogen gas for 20 minutes then the anthraquinones were added as ethanolic solutions, the tubes were then gassed with hydrogen again for 5 minutes. The reaction mixtures were then incubated for 3 hours at 31° C. The reactions were stopped by the addition of 200 ul of 1N sodium hydroxide. After 20 minutes the alkaline mixtures were centrifuged in a table top microfuge for 4 minutes at 14,000 rpm to remove cells and cell debris. The supernatant was then assayed for sulfide using the ferric chloride-DPD reagent system as described by Siegel et al., Anal. Blochem., 11:126-132, 1965, herein incorporated by reference.

[2] = test system: Desulfovibrio desulfuricans G100A; assay: microbe, parasite or virus in culture; assay type: cell-based; settings: for inhibition at 10 ppm / inhibition at 30 ppm: Desulfovibrio desulfuricans, G100A, read-out: % Inhib. (inhibition of sulfide production)
[3] = test system: D. desulfuricans G100A; assay: Growth of D. desulfuricans G100A after addition of inhibitor at 12 h; assay type: cell-based
Procedure: Four 10 ml culture tubes of BTZ-3 medium as defined in Example 1 supplemented with sodium lactate (40 mM) and sodium sulfate (30 mM) and 0.5 ml of reducing agent were inoculated with 100 ul of a fully grown suspension of D. desulfuricans G100A. The culture was allowed to grow and the optical density at 660 nm was monitored until the cells entered into exponential growth (approx. 12-15 h, O.D. 660=0.1-0.2). At this time 100 ul of a 300 ppm solution of 1,8 dihydroxyanthraquinone, 1-chloranthraquinone or 3-chloro-2-anthraquinone carboxylic acid, respectively, was added to one of the tubes. The ethanol:water (80:20) solvent (100 μl ) was added to the fourth tube to serve as an uninhibited control.
#3 ppm inhibitor added at 12 hours

[4] = test system: D. desulfuricans G100A; assay: Effect of dithionite-reduced anthraquinones on growth of D. desulfuricans G100A; assay type: cell-based
Procedure: Three anthraquinones, 1,8-dihydroxy-, 1-chloro-, and 3-chloro-2-carboxy- were prepared as 1 ml of 1000 ppm solutions in acetone for the first two compounds or water for the third. These solutions were then treated with 1 mg of the strong reducing agent, sodium dithionite. 50 ul of each solution (for a final culture concentration of 5 ppm) was used immediately to treat growing cultures of D. desulfuricans G100A in BTZ-3 medium as defined in Example 1. The compounds were added to the 10 ml cultures at 15 h of growth.

[5] = test system: D. desulfuricans #ATCC27774; assay: Respiration rate (hydrogen gas uptake) with sulfate as electron acceptor; settings: Desulfovibrio desulfuricans, ATCC27774, 4 h, pH 7, read-out: Gas Uptake (as percent of control)

## N#Cc1cccc2c1C(=O)c1ccccc1C2=O [1-cyanoanthraquinone, 1-Cyanoanthraquinone]
[1]
  activity at 0.1 ppm: 118%
  activity at 0.5 ppm: 20%
  activity at 2 ppm: 6.7%
  activity at 5 ppm: 6.8%
  inhibition of sulfide production (in words): inhibitory effect

## O=C1c2ccccc2C(=O)c2c(F)cccc21 [1-fluoroanthraquinone, 1-Fluoroanthraquinone]
[1]
  activity at 0.1 ppm: 105%
  activity at 0.5 ppm: 23%
  activity at 2 ppm: 0.9%
  activity at 5 ppm: 0.9%
  inhibition of sulfide production (in words): inhibitory effect

## O=C(O)c1cc2c(cc1Cl)C(=O)c1ccccc1C2=O [2-Chloroanthraquinone-3-carboxylic acid, 3-Chloro-9,10-dihydro-9,10-dioxo-2-anthracenecarboxylic acid]
[2]
  inhibition at 10 ppm: 100%
[3]; 0 h of growth, before addition of 3 ppm inhibitor at 12 h
  optical density reading at 660 nm: .01
[3]; 10 h of growth, before addition of 3 ppm inhibitor at 12 h
  optical density reading at 660 nm: .10
[3]; 12 h of growth, 3 ppm inhibitor added at 12 h
  optical density reading at 660 nm: .16
[3]; 14 h of growth, 3 ppm inhibitor added at 12 h
  optical density reading at 660 nm: .21
[3]; 18 h of growth, 3 ppm inhibitor added at 12 h
  optical density reading at 660 nm: .36
[3]; 20 h of growth, 3 ppm inhibitor added at 12 h
  optical density reading at 660 nm: .38
[3]; 24 h of growth, 3 ppm inhibitor added at 12 h
  optical density reading at 660 nm: .36
[3]; 29 h of growth, 3 ppm inhibitor added at 12 h
  optical density reading at 660 nm: .37
[3]; 34 h of growth, 3 ppm inhibitor added at 12 h
  optical density reading at 660 nm: .37
[3]; 62 h of growth, 3 ppm inhibitor added at 12 h
  optical density reading at 660 nm: .34
[3]; 92 h of growth, 3 ppm inhibitor added at 12 h
  optical density reading at 660 nm: .25
[4]; 0 h, before addition of 5 ppm dithionite-reduced compound at 15 h, control 0.02
  Optical Density @ 660 nm: 0.02
[4]; 2 h, before addition of 5 ppm dithionite-reduced compound at 15 h, control 0.02
  Optical Density @ 660 nm: 0.02
[4]; 12 h, before addition of 5 ppm dithionite-reduced compound at 15 h, control 0.08
  Optical Density @ 660 nm: 0.07
[4]; 15 h, time of addition of 5 ppm dithionite-reduced compound, control 0.18
  Optical Density @ 660 nm: 0.1
[4]; 17 h, 5 ppm dithionite-reduced compound added at 15 h, control 0.26
  Optical Density @ 660 nm: 0.15
[4]; 20 h, 5 ppm dithionite-reduced compound added at 15 h, control 0.37
  Optical Density @ 660 nm: 0.17
[4]; 25 h, 5 ppm dithionite-reduced compound added at 15 h, control 0.50
  Optical Density @ 660 nm: 0.17
[4]; 30 h, 5 ppm dithionite-reduced compound added at 15 h, control 0.98
  Optical Density @ 660 nm: 0.16
[4]; 45 h, 5 ppm dithionite-reduced compound added at 15 h, control 1.50
  Optical Density @ 660 nm: 0.22
[5]
  activity at 0.6 ppm: 79%
  activity at 1.5 ppm: 55%
  activity at 3 ppm: 41%

## O=C1c2ccccc2C(=O)c2cc(Br)ccc21 [2-bromoanthraquinone, 2-Bromoanthraquinone]
[1]
  activity at 0.1 ppm: 99%
  activity at 0.5 ppm: 33%
  activity at 2 ppm: 0.6%
  activity at 5 ppm: 0.6%
  inhibition of sulfide production (in words): inhibitory effect

## O=C1c2ccccc2C(=O)c2cc(C(F)(F)F)ccc21 [2-trifluoromethylanthraquinone, 2-Trifluoromethylanthraquinone]
[1]
  activity at 0.1 ppm: 99%
  activity at 0.5 ppm: 17%
  activity at 2 ppm: 1.7%
  activity at 5 ppm: 1.5%
  inhibition of sulfide production (in words): inhibitory effect

## CC(C)NC(=N)NC(=N)Nc1cccc2c1C(=O)c1ccccc1C2=O [N-[1-(9,10-dihydro-9,10-dioxo)anthracenyl]-N'-(1-methylethyl)imidodicarbonimidic diamide hydrochloride]
[2]
  inhibition of sulfide production (in words): inhibited sulfide formation
[2]; Table III, Example 3
  % inhibition of sulfide formation: 83%

## Nc1c(O)c(S(=O)(=O)O)c(O)c2c1C(=O)c1ccccc1C2=O [Nuclear fast red, 4-Amino-9,10-dihydro-1,3-dihydroxy-9,10-dioxo-2-anthracenesulfonic acid, monosodium salt]
[2]
  inhibition at 10 ppm: 20.4%

## CCCCCNc1ccc(NCCCCC)c2c1C(=O)c1ccccc1C2=O [Oil blue N, 1,4-Bis(pentylamino)-9,10-anthracenedione]
[2]
  inhibition at 30 ppm: 3.6%

## COc1cc(O)c2c(c1)C(=O)c1cc(C)cc(O)c1C2=O [Physcion, 1,8-Dihydroxy-3-methoxy-6-methyl-9,10-anthracenedione]
[2]
  inhibition at 10 ppm: 34.4%

## O=C1c2ccccc2C(=O)c2c(O)c(O)cc(O)c21 [Purpurin, 1,2,4-Trihydroxyanthraquinone]
[2]
  inhibition at 30 ppm: 55.7%

## O=C1c2ccc(O)c(O)c2C(=O)c2c(O)ccc(O)c21 [Quinalizarin, 1,2,5,8-Tetrahydroxyanthraquinone]
[2]
  inhibition at 10 ppm: 80%

## Nc1c(S(=O)(=O)O)cc(Nc2ccc(S(=O)(=O)O)c(Nc3nc(Cl)nc(Nc4cccc(S(=O)(=O)O)c4)n3)c2)c2c1C(=O)c1ccccc1C2=O [Reactive blue 5, 1-Amino-4[[3-[[4-chloro-6-[(3-sulfophenyl)amino]-1,3,5-triazin-2-yl]amino]-4-sulfophenyl]amino]-9,10-dihydro-9,10-dioxo-2-anthracenesulfonic acid]
[2]
  inhibition at 10 ppm: 0%

## Nc1c(S(=O)(=O)O)cc(Nc2cccc(S(=O)(=O)CCOS(=O)(=O)O)c2)c2c1C(=O)c1ccccc1C2=O [Remazol Brilliant blue R, 1-Amino-9,10-dihydro-9,10-dioxo-4-[[3[[2-(sulfoxy)-ethyl]sulfonyl]phenyl]amino]-2-anthracenesulfonic acid, disodium salt]
[2]
  inhibition at 10 ppm: 12.4%

## O=C1c2ccccc2C(=O)c2c1ccc(O[C@@H]1O[C@H](CO[C@@H]3OC[C@@H](O)[C@H](O)[C@H]3O)[C@@H](O)[C@H](O)[C@H]1O)c2O [Ruberythric acid, 1-Hydroxy-2-[(6-O-β-D-xylopyranosyl-β-D-glucopyranosyl)oxy]-9,10-anthracenedione]
[2]
  inhibition at 10 ppm: 29.7%

## Cc1ccc(Nc2ccc(Nc3ccc(C)cc3)c3c2C(=O)c2ccccc2C3=O)cc1 [Solvent green 3, 1,4-Bis[(4-methylphenyl)amino]9,10-anthracenedione]
[2]
  inhibition at 30 ppm: 4.3%

## Cc1ccc(Nc2ccc(O)c3c2C(=O)c2ccccc2C3=O)c(S(=O)(=O)O)c1 [Solway purple R, 2-[(9,10-Dihydro-4-hydroxy-9,10-dioxo-1-anthracenyl)-amino]-5-methyl-benzenesulfonic acid, Na salt]
[2]
  inhibition at 30 ppm: 9.1%

## CCNc1ccc(NCC)c2c1C(=O)c1ccccc1C2=O [Sudan blue, 1,4-Bis(ethylamino)-9,10-anthracenedione]
[2]
  inhibition at 30 ppm: 1.3%

## Cc1ccc(Nc2ccc(Nc3ccc(C)cc3)c3c2C(=O)c2cccc(O)c2C3=O)cc1 [Sudan green, 5-hydroxy-1,4-bis[(4-methylphenyl)amino]-9,10-anthracenedione]
[2]
  inhibition at 30 ppm: 0%

## CN(C)CCOc1ccc2c(c1)C(=O)c1ccc(OCCN(C)C)cc1C2=O [Tilorone analog R11,043DA, 2,6-Bis[2-(dimethylamino)ethoxy]-9,10-anthracenedione]
[2]
  inhibition at 10 ppm: 98.7%

## Cc1ccc(Nc2ccc(Nc3ccc(C)cc3S(=O)(=O)O)c3c2C(=O)c2c(O)ccc(O)c2C3=O)c(S(=O)(=O)O)c1 [alizarine viridine, 2,2'-[(9,10-Dihydro-5,8-dihydroxy-9,10-dioxo-1,4-anthracenediyl)diimino]bis[5-methyl]benzenesulfonic acid]
[2]
  inhibition at 30 ppm: 2.6%

## Nc1c(S(=O)(=O)O)cc(Nc2ccc(S(=O)(=O)O)c(Nc3nc(Cl)nc(Cl)n3)c2)c2c1C(=O)c1ccccc1C2=O [reactive blue 4]
[2]
  inhibition at 10 ppm: 7.3%
